Results taken from US9365499B2, “9-aminomethyl substituted tetracycline compounds” (KBP Biosciences Co., Ltd., priority 2011, dated 2016).
Converted amounts (≈) assume the structure as drawn.

Key:
Staphylococcus aureus [1] = experiment: bactericidal effects in vivo in neutropenic mouse thigh model with Staphylococcus aureus infection; parameters: species or system mice; conditions: for change values (24 h vs blank group mean 0 h) / log10 CFU for each thigh, mean ± standard deviations (24 h): 2 dose times, subcutaneous
Description: Bactericidal Effects of the Present Compounds In Vivo in Mouse Thigh Model with Staphylococcus aureus Infection SPF grade CD-1 (ICR) female mice housed in SPF environment, weighing 25±2 g, purchased from Beijing Vital River Laboratory Animal Technology Co., Ltd., licensed […] No: SCXK (Beijing) 2006-0009. Staphylococcus aureus: purchased from Shanghai Renji Hospital. Four days before bacterial infection, intraperitoneal (ip) injection of cyclophosphamide 150 mg/kg; 1 day before bacterial infection, intraperitoneal (ip) injection of cyclophosphamide 100 mg/kg; Picked fresh Staphylococcus aureus single colonies which were plate cultured for 18 h, and inoculated into broth and cultured at 35° C. for 18 h. The bacterial suspension was diluted with broth, and 0.5 McFarland turbidity standard indicator bacteria suspension was prepared with a McFarland turbiditor, 10-fold diluted with broth and injected into the thigh muscle of mice in an amount of 0.1 mL for each thigh. The concentration of the bacteria suspension was about 10^6-10^7 CFU/ml. The inoculum concentration was determined by an agar-plate count method. Blank Group: the animals were sacrificed by dislocation at 2 h (recorded as 0 h) after the inoculation of bacteria. Solvent group: The first administration time was set at 2 h (denoted as 0 h) after the animals were infected with bacteria, the solvent was subcutaneously administrated, the animals were sacrificed by dislocation at 24 h after the administration. Treatment group: The first administration time was set at 2 h (denoted as 0 h). […] The thigh muscle tissue was separated from the sacrificed animals, and 5 mL of sodium chloride injection was added, homogenated. The homogenate obtained were diluted series, taken 0.05 mL and inoculated to agar plates, two plates were inoculated in parallel for each gradient bacterial suspension, and incubated at 35° C. for 18 h. Observe the growth of the colonies on each plate, and select the plates with the number of colonies between 30-300 for colony count. The number of colonies was recorded as n1, n2. N represents the diluted fold. The number of colonies (units CFU) for each thigh was calculated according to the formula of “(n1+n2)/2/0.05×5×N”. A logarithm to the base 10 for the number of colonies of each thigh was calculated to obtain log10 CFU value for each thigh.

Hemophilus influenzae = experiment: antibacterial activity in vitro, agar dilution method; assay type: cell-based; conditions: Haemophilus influenzae; Table 5; MIC90 = 90% inhibitory concentration
Text: (§1) The antibacterial spectrum and in vitro antibacterial activity of the compound of the present invention
(§2) Experimental method: the agar dilution method, with reference to Clinical And Laboratory Standards Institute. Methods for Dilution Antimicrobial Susceptibility Tests for Bacteria That Grow Aerobically; Approved Standard-Seventh Edition. CLSI Document M7-A7. Vol 26, no. 2, Wayne, Pa.: Clinical and Laboratory Standards Institute, 2006.
(§3) Wherein MIC represents the minimum inhibitory concentration, MIC90 represents the 90% inhibitory concentration.

Acinetobacter baumannii = experiment: as above; assay type: cell-based; conditions: Table 5, MIC90 = 90% inhibitory concentration
Text: as §1, §2, §3

[2] = system: Streptococcus constellatus; experiment: as above; assay type: cell-based; conditions: Table 5, MIC90 = 90% inhibitory concentration
Text: as §1, §2, §3

[3] = system: Methicillin-resistant Staphylococcus aureus (MRSA); experiment: as above; assay type: cell-based; conditions: Table 5, MIC90 = 90% inhibitory concentration
Text: as §1, §2, §3

Staphylococcus aureus [4] = experiment: as above; assay type: cell-based
Text: as §1, §2, §3

[5] = cited from earlier work
[6] = male SD rats, 5 mg/kg iv, cited from earlier work
in vivo = experiment: in vivo; parameters: species or system male SD rats; conditions: male, SD, rat
Description: Test animals: male SD rats, weighing 180-280 g, purchased from Beijing Vital River Laboratory Animal Technology Co., Ltd.; animal Certificate of Conformity: SCXK (Beijing) 2006-0009. Six rats were tested for each compound. the compounds of the present invention, prepared in accordance with the methods of above Examples, dissolved in physiological saline. tigecycline, dissolved in physiological saline. Administration of the compounds of the present invention: intravenous bolus injection (iv), dose: 5 mg/kg, administrating volume: 5 mL/kg; gavage (po), dose: 5 mg/kg, administrating volume: 5 mL/kg. Administration of tigecycline: gavage (po), dose: 10 mg/kg, administrating volume: 5 mL/kg. Prior to administration help but water fasting for 16 hours, 4 hours after administration to food. Compound 9: iv blood sampling time point: denoted by 0 min before administration, 5 min, 15 min, 30 min, 1 […] after administration; po blood sampling time point: denoted by 0 min before administration, 5 min, 15 min, 30 min, 1 […] after administration; Compound 20: iv blood sampling time point: 5 min, 15 min, 30 min, 1 […] after administration; po blood sampling time point: 10 min, 30 min, 1 […] after administration; Compound 23: iv blood sampling time point: denoted by 0 min before administration, 5 min, 15 min, 30 min, 1 […] after administration; po blood sampling time point: denoted by 0 min before administration, 5 min, 15 min, 30 min, 1 […] after administration; Tigecycline: iv blood sampling time point: 5 min, 15 min, 30 min, 1 h, 2 h, 4 h, 6 h, 8 h after administration; po blood sampling time point: 10 min, 30 min, 1 […] after administration. Each time point is taken around 100 μl whole blood and placed in a heparinized tube, centrifugated at 8000 rpm/min at 4° C. for 6 minutes in a low-temperature high-speed centrifuge to separate plasma, the resulting plasma was frozen at -80° C. refrigerator. Plasma samples analysis: 20 μl of plasma was taken and added 200 μl of internal standard solution, subjected to vortex for 3 minutes, then to centrifugation at 12,000 rpm/min for 5 minutes. 100 μl of supernatant was taken and analyzed using LC-MS/MS. Formula Absolute Bioavailability F%=[AUC](po)×Dose(iv)/[AUC](iv)×Dose(po)

[7] = monkey, oral; cited from earlier work

## CN(C)c1cc(NC(=O)CNC(C)(C)C)c(O)c2c1C[C@H]1C[C@H]3[C@H](N(C)C)C(O)=C(C(N)=O)C(=O)[C@@]3(O)C(O)=C1C2=O [tigecycline]
Staphylococcus aureus [1]; 2 mg/kg/day
  change values (24 h vs blank group mean 0 h): 1.63 log10 CFU
  log10 CFU for each thigh, mean ± standard deviations (24 h): 8.02 ± 0.24 log10 CFU
Staphylococcus aureus [1]; 6 mg/kg/day
  bacteria growing values of each thigh: 0.63
  bactericidal effect against Staphylococcus aureus in vivo in mice: did not show bactericidal effect
  change values (24 h vs blank group mean 0 h): 0.63 log10 CFU
  log10 CFU for each thigh, mean ± standard deviations (24 h): 7.02 ± 0.43 log10 CFU
Staphylococcus aureus [1]; 18 mg/kg/day
  change values (24 h vs blank group mean 0 h): −2.19 log10 CFU
  log10 CFU for each thigh, mean ± standard deviations (24 h): 4.20 ± 0.25 log10 CFU
Hemophilus influenzae
  MIC90: 0.5 µg/mL (≈ 0.854 µM)
Acinetobacter baumannii
  MIC90: 4 µg/mL (≈ 6.83 µM)
[2]
  MIC90: 0.25 µg/mL (≈ 0.427 µM)
[3]
  MIC90: 1 µg/mL (≈ 1.71 µM)
Staphylococcus aureus [4]; Staphylococcus aureus, Table 5, MIC90 = 90% inhibitory concentration
  MIC90: 0.5 µg/mL (≈ 0.854 µM)
Staphylococcus aureus [4]; Table 10, Staphylococcus aureus of the thigh model
  MIC: 0.25 µg/mL (≈ 0.427 µM)
[5]
  absorption in an oral use: can not be absorbed in an oral use
[6]; time 0-24 h
  AUC: 3550 ng·h/mL
[6]
  T1/2: 1 h
In vivo; iv, 5 mg/kg
  AUC(0-inf): 5120 ng·h/mL
  Vd: 4.47 L/kg
  clearance: 16.5 mL/min/kg
  half-life: 3.8 h
In vivo; po, 10 mg/kg
  AUC(0-inf): 296 ng·h/mL
  Cmax: 31.8 ng/mL
  Tmax: 0.5 h
  bioavailability: 1.8%
[7]
  absorption in vivo when orally used: can not be absorbed in vivo when orally used
